Measured values as given in patent US20210161135A1, “WEED CONTROL FROM APPLICATIONS OF PYRIDINE CARBOXYLIC ACID HERBICIDES AND 4-HYDROXYPHENYL-PYRUVATE DIOXYGENASE (HPPD) INHIBITORS” (Dow AgroSciences LLC, priority 2018, published 2021).

How the values were obtained:
Experiment in all cases: Postemergence herbicidal activity, greenhouse, visual injury after 20-22 d
Assay type in all cases: in vivo
[1] = system: common lambsquarters (Chenopodium album L., CHEAL)
Method: (§1) Seeds of the desired test plant species were planted in Sun Gro MetroMix® 306 planting mixture, which typically has a pH of 6.0 to 6.8 and an organic matter content of about 30 percent, in plastic pots with a surface area of 103.2 square centimeters (cm^2). When required to ensure good germination and healthy plants, a fungicide treatment and/or other chemical or physical treatment was applied. The plants were grown for 7-36 days (d) in a greenhouse with an approximate 14-hour (h) photoperiod which was maintained at about 23° C. during the day and 22° C. during the night. Nutrients and water were added on a regular basis and supplemental lighting was provided with overhead metal halide 1000-Watt lamps as necessary. The plants were employed for testing when they reached the second or third true leaf stage.
(§2) An emulsifiable concentrate (EC) formulation containing Compound 1 at 100 gai/L was prepared by combining Compound 1 with 1-butyl-2-pyrrolidinone (Tamisolve NxG; 360.5 g/L), benzyl acetate (544.6 g/L) and Agnique MBL 520L surfactant (52.9 g/L). […] The concentrated stock solutions were diluted with an aqueous mixture of 1.5% v/v of Agri-dex crop oil concentrate to provide the appropriate application rates. Compound requirements are based upon a 12 milliliter (mL) application volume at a rate of 187 liters per hectare (L/ha). Spray solutions of the experimental compound mixtures were prepared by adding the stock solutions to the appropriate amount of dilution solution to form a 12 mL spray solution in two-way combinations. Formulated compounds were applied to the plant material with an overhead Mandel track sprayer equipped with 8002E nozzles calibrated to deliver 187 L/ha over an application area of 0.503 square meters (m^2) at a spray height of […] above average plant canopy. Control plants were sprayed in the same manner with the solvent blank. Application rates for component (a) are in g ai/ha, and application rates for component (b) are in g ai/ha.
(§3) The treated plants and control plants were placed in a greenhouse as described above and watered by sub-irrigation to prevent wash-off of the test compounds. After 20-22 d, the condition of the test plants as compared with that of the control plants was determined visually and scored on a scale of 0 to 100 percent where 0 corresponds to no injury and 100 corresponds to complete kill. […] The Colby method was used to determine the herbicidal effects expected from the mixtures.

[2] = system: velvetleaf (Abutilon theophrasti, ABUTH)
Method: as §1, §2, §3

[3] = system: poinsettia (Euphorbia heterophylla, EPHHL)
Method: as §1, §2, §3

[4] = system: thistle (Cirsium arvense CIRAR)
Method: as §1, §2, §3

[5] = system: wild buckwheat (Polygonum convolvulus, POLCO)
Method: as §1, §2, §3

[6] = system: wild pansy (Viola tricolor, VIOTR)
Method: as §1, §2, §3

[7] = system: spring rape (Brassica napus, BRSNN)
Method: as §1, §2, §3

[8] = system: giant foxtail (Setaria faberi, SETFA)
Method: as §1, §2, §3

[9] = system: kochia (Kochia scoparia, KCHSC)
Method: as §1, §2, §3

[10] = system: ivyleaf morningglory (Ipomoea hederacea, IPOHE); conditions: two trials
Method: as §1, §2, §3

[11] = system: grain sorghum (Sorghum vulgare, SORVU); conditions: two trials
Method: as §1, §2, §3

[12] = system: sunflower (Helianthus annuus, HELAN); conditions: two trials
Method: as §1, §2, §3

[13] = system: winter wheat (Triticum aestivum, TRZAW); conditions: two trials
Method: as §1, §2, §3

[14] = system: large crabgrass (Digitaria sanguinalis, DIGSA); conditions: two trials
Method: as §1, §2, §3

[15] = system: pigweed (Amaranthus retroflexus, AMARE); conditions: two trials
Method: as §1, §2, §3

[16] = system: common chickweed (Stellaria media, STEME); conditions: two trials
Method: as §1, §2, §3

[17] = system: winter rape (Brassica napus, BRSNW); conditions: two trials
Method: as §1, §2, §3

maize (Zea mays, ZEAMX) = conditions: two trials
Method: as §1, §2, §3

[18] = system: barnyardgrass (Echinochloa crus-galli, ECHCG); conditions: two trials
Method: as §1, §2, §3

[19] = system: soybean (Glycine max, GLXMA); conditions: two trials
Method: as §1, §2, §3

[20] = system: rice (Oryza sativa, ORYSA); conditions: two trials
Method: as §1, §2, §3

[21] = system: wild oat (Avena fatua, AVEFA); conditions: two trials
Method: as §1, §2, §3

[22] = Compound 1 5 g ai/ha alone, Tables 4-5
[23] = Compound 1 5 g ai/ha alone, two trials
[24] = Compound 1 10 g ai/ha alone, Tables 4-5
[25] = Compound 1 10 g ai/ha alone, two trials
[26] = HPPD inhibitor 35 g ai/ha alone
[27] = HPPD inhibitor 35 g ai/ha alone, two trials

## CS(=O)(=O)c1ccc(C(=O)C2=C(Sc3ccccc3)C3CCC(C3)C2=O)c(Cl)c1 (stereo not drawn) [Benzobicyclon, 3-[2-chloro-4-(methylsulfonyl)benzoyl]-4-(phenylthio)bicyclo[3.2.1]oct-3-en-2-one]
[1]; Benzobicyclon 50 g ai/ha alone
  Effect (% visual injury), Obs: 100%
[2]; Benzobicyclon 50 g ai/ha alone
  Effect (% visual injury), Obs: 25%
[3]; Benzobicyclon 50 g ai/ha alone
  Effect (% visual injury), Obs: 5%
[4]; Benzobicyclon 50 g ai/ha alone
  Effect (% visual injury), Obs: 20%
[5]; Benzobicyclon 50 g ai/ha alone
  Effect (% visual injury), Obs: 0%
[6]; Benzobicyclon 50 g ai/ha alone
  Effect (% visual injury), Obs: 10%
[7]; Benzobicyclon 50 g ai/ha alone
  Effect (% visual injury), Obs: 0%
[8]; Benzobicyclon 50 g ai/ha alone
  Effect (% visual injury), Obs: 0%
[9]; Benzobicyclon 50 g ai/ha alone
  Effect (% visual injury), Obs: 10%

## Nc1c(F)c(-c2ccc3cc[nH]c3c2F)nc(C(=O)O)c1Cl [Compound 1]
[10]; Compound 1 5 g ai/ha alone
  Effect (% visual injury), Obs: 10%
[10]; Compound 1 10 g ai/ha alone
  Effect (% visual injury), Obs: 10%
[11]; Compound 1 5 g ai/ha alone
  Effect (% visual injury), Obs: 0%
[11]; Compound 1 10 g ai/ha alone
  Effect (% visual injury), Obs: 50%
[12]; Compound 1 5 g ai/ha alone
  Effect (% visual injury), Obs: 90%
[12]; Compound 1 10 g ai/ha alone
  Effect (% visual injury), Obs: 90%
[13]; Compound 1 5 g ai/ha alone
  Effect (% visual injury), Obs: 0%
[13]; Compound 1 10 g ai/ha alone
  Effect (% visual injury), Obs: 0%
[1]; [22]
  Effect (% visual injury), Obs: 90%
[1]; [23]
  Effect (% visual injury), Obs: 90%
[1]; [24]
  Effect (% visual injury), Obs: 95%
[1]; [25]
  Effect (% visual injury), Obs: 98%
[14]; Compound 1 5 g ai/ha alone
  Effect (% visual injury), Obs: 0%
[14]; Compound 1 10 g ai/ha alone
  Effect (% visual injury), Obs: 10%
[15]; Compound 1 5 g ai/ha alone
  Effect (% visual injury), Obs: 75%
[15]; Compound 1 10 g ai/ha alone
  Effect (% visual injury), Obs: 97%
[2]; [22]
  Effect (% visual injury), Obs: 50%
[2]; [23]
  Effect (% visual injury), Obs: 50%
[2]; [24]
  Effect (% visual injury), Obs: 50%
[2]; [25]
  Effect (% visual injury), Obs: 55%
[16]; Compound 1 5 g ai/ha alone
  Effect (% visual injury), Obs: 70%
[16]; Compound 1 10 g ai/ha alone
  Effect (% visual injury), Obs: 70%
[3]; [22]
  Effect (% visual injury), Obs: 75%
[3]; [23]
  Effect (% visual injury), Obs: 86%
[3]; [24]
  Effect (% visual injury), Obs: 100%
[3]; [25]
  Effect (% visual injury), Obs: 99%
[17]; Compound 1 5 g ai/ha alone
  Effect (% visual injury), Obs: 40%
[17]; Compound 1 10 g ai/ha alone
  Effect (% visual injury), Obs: 45%
Maize (Zea mays, ZEAMX); Compound 1 5 g ai/ha alone
  Effect (% visual injury), Obs: 0%
Maize (Zea mays, ZEAMX); Compound 1 10 g ai/ha alone
  Effect (% visual injury), Obs: 0%
[18]; Compound 1 5 g ai/ha alone
  Effect (% visual injury), Obs: 20%
[18]; Compound 1 10 g ai/ha alone
  Effect (% visual injury), Obs: 60%
[19]; Compound 1 5 g ai/ha alone
  Effect (% visual injury), Obs: 95%
[19]; Compound 1 10 g ai/ha alone
  Effect (% visual injury), Obs: 100%
[4]; [22]
  Effect (% visual injury), Obs: 50%
[4]; [23]
  Effect (% visual injury), Obs: 50%
[4]; [24]
  Effect (% visual injury), Obs: 60%
[4]; [25]
  Effect (% visual injury), Obs: 60%
[5]; [22]
  Effect (% visual injury), Obs: 40%
[5]; [23]
  Effect (% visual injury), Obs: 53%
[5]; [24]
  Effect (% visual injury), Obs: 40%
[5]; [25]
  Effect (% visual injury), Obs: 58%
[6]; [22]
  Effect (% visual injury), Obs: 10%
[6]; [23]
  Effect (% visual injury), Obs: 8%
[6]; [24]
  Effect (% visual injury), Obs: 15%
[6]; [25]
  Effect (% visual injury), Obs: 13%
[7]; [22]
  Effect (% visual injury), Obs: 50%
[7]; [23]
  Effect (% visual injury), Obs: 50%
[7]; [24]
  Effect (% visual injury), Obs: 80%
[7]; [25]
  Effect (% visual injury), Obs: 80%
[20]; Compound 1 5 g ai/ha alone
  Effect (% visual injury), Obs: 0%
[20]; Compound 1 10 g ai/ha alone
  Effect (% visual injury), Obs: 10%
[21]; Compound 1 5 g ai/ha alone
  Effect (% visual injury), Obs: 0%
[21]; Compound 1 10 g ai/ha alone
  Effect (% visual injury), Obs: 0%
[8]; [22]
  Effect (% visual injury), Obs: 50%
[8]; [23]
  Effect (% visual injury), Obs: 30%
[8]; [24]
  Effect (% visual injury), Obs: 75%
[8]; [25]
  Effect (% visual injury), Obs: 63%
[9]; [22]
  Effect (% visual injury), Obs: 65%
[9]; [23]
  Effect (% visual injury), Obs: 63%
[9]; [24]
  Effect (% visual injury), Obs: 75%
[9]; [25]
  Effect (% visual injury), Obs: 68%

## CS(=O)(=O)c1cc(C(F)(F)F)ccc1C(=O)c1cnoc1C1CC1 [Isoxaflutole, (5-cyclopropyl-4-isoxazolyl)[2-(methylsulfonyl)-4-(trifluoromethyl)phenyl]methanone]
[10]; [26]
  Effect (% visual injury), Obs: 70%
[11]; [26]
  Effect (% visual injury), Obs: 0%
[12]; [26]
  Effect (% visual injury), Obs: 90%
[13]; [26]
  Effect (% visual injury), Obs: 15%
[1]; [27]
  Effect (% visual injury), Obs: 99%
[14]; [26]
  Effect (% visual injury), Obs: 50%
[15]; [26]
  Effect (% visual injury), Obs: 95%
[2]; [27]
  Effect (% visual injury), Obs: 45%
[16]; [26]
  Effect (% visual injury), Obs: 10%
[3]; [27]
  Effect (% visual injury), Obs: 43%
[17]; [26]
  Effect (% visual injury), Obs: 60%
Maize (Zea mays, ZEAMX); [26]
  Effect (% visual injury), Obs: 0%
[18]; [26]
  Effect (% visual injury), Obs: 25%
[19]; [26]
  Effect (% visual injury), Obs: 75%
[4]; [27]
  Effect (% visual injury), Obs: 75%
[5]; [27]
  Effect (% visual injury), Obs: 10%
[6]; [27]
  Effect (% visual injury), Obs: 45%
[7]; [27]
  Effect (% visual injury), Obs: 85%
[20]; [26]
  Effect (% visual injury), Obs: 30%
[21]; [26]
  Effect (% visual injury), Obs: 60%
[8]; [27]
  Effect (% visual injury), Obs: 97%
[9]; [27]
  Effect (% visual injury), Obs: 90%
